This passage reports EC50 results from BindingDB's records for doi:10.1021/acs.jmedchem.9b00781 (Seoul National University, 2019).

Some results are limits rather than exact numbers.

This assay can be described thus: Inhibition of RNA-dependent RNA polymerase in ZIKV SL0612 infected in African green monkey Vero cells assessed as reduction in virus-induced cytopathic effect measured after 96 hrs post-infection by MTS assay.

For orientation: EC50 means the concentration needed to bring the measured effect to its halfway point. As for `Nc1ncnc2c1ncn2[C@H]1[C@H](O)[C@H](O)[C@@H](CO)C1(F)F`, the EC50 stood at 0.26 µM.
Then `Nc1ccn([C@H]2[C@H](O)[C@H](O)[C@@H](CO)C2(F)F)c(=O)n1`, with > 100 µM.
Then `CNc1ncnc2c1ncn2[C@H]1[C@H](O)[C@H](O)[C@@H](CO)[C@H]1F`, with > 100 µM.
Then `O=c1ccn([C@H]2[C@H](O)[C@H](O)[C@@H](CO)[C@H]2F)c(=O)[nH]1`, with > 100 µM; and `Nc1ncnc2c1ncn2[C@@H]1C[C@H](CO)[C@@H](O)[C@H]1O` [3-(6-Amino-purin-9-yl)-5-hydroxymethyl-cyclopentane-1,2-diol], with 0.64 µM.
Regarding `O=c1ccn([C@H]2[C@H](O)[C@H](O)[C@@H](CO)[C@@H]2F)c(=O)[nH]1`, the EC50 is > 100 µM.
Consider `O=c1ccn([C@H]2[C@H](O)[C@H](O)[C@@H](CO)C2(F)F)c(=O)[nH]1`, for which the EC50 is > 100 µM.
As for `CNc1ncnc2c1ncn2[C@H]1[C@H](O)[C@H](O)[C@@H](CO)C1(F)F`, the EC50 is > 100 µM.
Consider `CC(C)OC(=O)[C@H](C)N[P@](=O)(OC[C@@H]1[C@@H](O)[C@@H](O)[C@H](n2ccc(=O)[nH]c2=O)C1(F)F)Oc1ccccc1`, for which the concentration for a half-maximal effect (EC50) is > 100 µM.
For the compound `CC(C)OC(=O)[C@H](C)N[P@](=O)(OC[C@@H]1[C@@H](O)[C@@H](O)[C@H](n2cnc3c(N)ncnc32)C1(F)F)Oc1ccccc1`, the EC50 amounted to 1.75 µM.
Then `CC(C)OC(=O)[C@H](C)N[P@](=O)(OC[C@@H]1[C@@H](O)[C@@H](O)[C@H](n2ccc(=O)[nH]c2=O)[C@@H]1F)Oc1ccccc1`, with > 100 µM; and `Nc1ccn([C@H]2[C@H](O)[C@H](O)[C@@H](CO)[C@H]2F)c(=O)n1`, with > 100 µM.
